Where two headings read alike, the source gives them in different places.

Data set [1] in a line: Hepatocyte Stability Assay, human. The data set is classed as in vitro ADME. Particulars: cryopreserved hepatocytes in suspension; human hepatocytes; read-out: Human hepatocyte clearance. On the procedure: • Preparation of working solutions: 10 mM stock solutions of test compound and positive control were prepared in DMSO. In separate conical tubes, the 10 mM solution of test compound and the positive control were diluted to 100 μM by combining 198 μL of 50% acetonitrile/50% water and 2 μL of 10 mM stock.
Preparation of Hepatocytes: Incubation medium (William's E Medium supplemented with GlutaMAX) and hepatocyte thawing medium were placed in a 37° C. water bath and allowed warming for at least 15 minutes prior to use. A vial of cryopreserved hepatocytes was transferred from storage, ensuring that vials remained at cryogenic temperatures until thawing process ensued. Cells were thawed by placing the vial in a 37° C. water bath and gently shaking the vials for 2 minutes. After thawing was completed, vial was sprayed with 70% ethanol and transferred to a biosafety cabinet. Wide-bore pipette tip were used to transfer hepatocytes into 50 mL conical tube containing thawing medium. The 50 mL conical tube were placed into a centrifuge and spun at 100 g for 10 minutes. Upon completion of spin, thawing medium was aspirated and resuspended hepatocytes in enough incubation medium to yield ˜1.5×10^6 cells/mL. Using an AO/PI Staining, cells were counted and the viable cell density was determined. Cells with poor viability (<75% viability) were determined to be not acceptable for use. Cells were diluted with incubation medium to a working cell density of 0.5×10^6 viable cells/mL.
Procedure for Stability Determination: 198 μL of hepatocytes were pipetted into each wells of a 96-well non-coated plate. The plate was placed in the incubator to allow the hepatocytes to warm for 10 minutes. 2 μL of the 100 μM test compound or positive control solutions were pipetted into respective wells of the 96-well non-coated plate to start the reaction. The plate was returned to the incubator for the designed time points. Well contents was transferred in 25 μL aliquots at time points of 0, 15, 30, 60, 90 and 120 minutes. The aliquots were then mixed with 6 volumes (150 μL) of acetonitrile containing internal standard, IS (100 nM alprazolam, 200 nM caffeine and 100 nM tolbutamide) to terminate the reaction. The mixture was vortex for 5 minutes. Samples were centrifuged for 45 minutes at 3,220 g. An aliquot of 100 μL of the supernatant was diluted by 100 μL ultra-pure water, and the mixture was used for LC/MS/MS analysis. All incubations were performed in duplicate.
Data Analysis: All calculations were carried out using Microsoft Excel. Peak areas were determined from extracted ion chromatograms. In vitro half-life (t1/2) of parent compound was determined by regression analysis of the percent parent disappearance vs. time curve.
The in vitro half-life (in vitro t1/2) was determined from the slope value:
Conversion of the in vitro t1/2 (in min) into the in vitro intrinsic clearance (in vitro CLint, in μL/min/1×10^6 cells) was done using the following equation (mean of duplicate determinations):
V=incubation volume(0.2 mL);
N=number of hepatocytes per well(0.1×10^6 cells).
“+++” indicates a CLint value less than 20 mL/min/Kg, “++” indicates a CLint between 20 and 50 mL/min/Kg, and “+” indicates an CLint above 50 mL/min/Kg.

A short description of data set [2]: Solubility Determination Assay in PBS pH 1.6 and pH 7.4. It counts as physicochemical. Particulars: PBS buffer, aqueous buffer, kinetic from dmso stock. How it is done: The stock solutions of test compounds and control compound progesterone were prepared in DMSO at the concentrations of 10 mM. 15 μL of stock solution (10 mM) of each sample was placed in order into their proper 96-well rack. 485 μL of PBS pH 1.6 and pH 7.4 were added into each vial of the cap-less Solubility Sample plate. The assay was performed in singlet. One stir stick was added to each vial and then the vial was sealed using a molded PTFE/Silicone plug. […] After completion of the 2 hours, plugs were removed and the stir sticks were removed using a big magnet. The samples from the Solubility Sample plate were transferred into the filter plate. Using the Vacuum Manifold, all the samples were filtered. An aliquot of 5 μL was taken from the filtrate followed by addition of 495 μL of a mixture of H2O and acetonitrile containing internal standard (1:1). A certain proportion of ultrapure water was used to dilute the diluent according to the peak shape. The dilution factor was changed according to the solubility values and the LC-MS signal response.
From the 10 mM DMSO STD plate, 6 μL was transferred into the remaining empty plate, and then 194 μL of DMSO were added to that plate to have a STD concentration of 300 μM. From the 300 μM DMSO STD plate, 5 μL were transferred into the remaining empty plate, and then 495 μL of a mixture of H2O and acetonitrile containing internal standard (1:1) were added to that plate to have a final STD concentration of 3 μM. A certain proportion of ultrapure water was used to dilute the diluent according to the peak shape. The concentrations of the standard samples were changed according to the LC-MS signal response.
The plate was placed into the well plate autosampler. The samples were evaluated by LC-MS/MS analysis.
All calculations were carried out using Microsoft Excel.
The filtrate was analyzed and quantified against a standard of known concentration using LC coupled with mass spectral peak identification and quantitation. Solubility values of the test compound and control compound were calculated as follows: […]
Any value of the compounds that was not within the specified limits was rejected and the experiment was repeated.
“+++” indicates a solubility value equal to or greater than 1 μM, “++” indicates a solubility value between 0.1 and 1 μM, and “+” indicates a solubility value less than 0.1 μM.

The target in the next data set is T1, AHR (Homo sapiens, UniProt P35869).
T1 construct: other cell line with a DRE-luciferase reporter stably transfected; endogenous in cells; host or cells: HepG2 AhR-Lucia reporter cells
T1 sequence (P35869 11-848): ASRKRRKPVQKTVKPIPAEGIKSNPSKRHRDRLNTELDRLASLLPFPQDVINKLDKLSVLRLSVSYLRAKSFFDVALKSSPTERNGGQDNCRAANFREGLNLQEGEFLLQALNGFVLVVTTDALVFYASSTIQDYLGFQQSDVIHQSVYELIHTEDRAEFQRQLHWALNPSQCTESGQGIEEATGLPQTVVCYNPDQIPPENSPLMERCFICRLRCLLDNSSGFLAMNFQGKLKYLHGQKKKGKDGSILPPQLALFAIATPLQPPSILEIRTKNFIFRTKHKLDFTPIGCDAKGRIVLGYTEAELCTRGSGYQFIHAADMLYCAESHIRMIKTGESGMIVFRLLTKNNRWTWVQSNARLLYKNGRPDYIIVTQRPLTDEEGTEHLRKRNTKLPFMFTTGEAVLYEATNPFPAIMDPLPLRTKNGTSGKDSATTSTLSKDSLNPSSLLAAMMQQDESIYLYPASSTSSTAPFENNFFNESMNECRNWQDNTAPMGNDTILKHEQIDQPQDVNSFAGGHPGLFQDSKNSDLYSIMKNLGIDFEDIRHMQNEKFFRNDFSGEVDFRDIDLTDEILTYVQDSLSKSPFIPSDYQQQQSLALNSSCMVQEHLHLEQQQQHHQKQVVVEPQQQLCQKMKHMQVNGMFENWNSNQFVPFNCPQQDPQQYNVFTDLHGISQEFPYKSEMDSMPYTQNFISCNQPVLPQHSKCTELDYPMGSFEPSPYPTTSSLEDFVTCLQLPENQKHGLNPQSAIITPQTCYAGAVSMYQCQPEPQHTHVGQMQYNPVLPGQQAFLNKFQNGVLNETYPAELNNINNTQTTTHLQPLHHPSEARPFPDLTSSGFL
The data set is described as follows: DRE-Luciferase Reporter Assay, HepG2 AhR-Lucia reporter cells. It counts as cell-based. As to conditions: with AHR activating ligand at EC50, read-out: HepG2-Luc IC50. A digest of the protocol:
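Antagonism read as inhibition of agonist-driven secreted luciferase in stably DRE-reporter-transfected cells such as HepG2 AhR-Lucia. Agonist ligand at EC50 concentration added 1 hr post-plating alongside antagonist (log series, top 100 uM); supernatant read at 24 or 48 h, IC50 derived against agonist-only maximum.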
(In a reporter assay the amount or activity of a reporter protein is the signal.)

Setting [3] is: PBS pH 1.6, 25° C., read-out: Aq. Solubility at pH = 1.6.
Setting [4] is: PBS pH 7.4, 25° C., read-out: Aq. Solubility at pH = 7.4.

Usually solubility stands for the dissolved amount per volume that the medium holds. Take `O=c1c2cc(-c3ccc(Cl)cc3)nc(-c3cccnc3)c2ncn1[C@H]1COC[C@H]1O` (stereo in doubt) [Compound 70]: in data set [1], the CLint scaled at 1 μM is less than 20 mL/min/kg. Also, the solubility at 2 h in data set [2] (setting [3]) and in data set [2] (setting [4]) was no less than 1 µM throughout.
For orientation: IC50 means the midpoint of a concentration-inhibition curve. Consider `C[C@@H](CO)n1cnc2c(-c3cccnc3)nc(-c3ccc(Cl)cc3)cc2c1=O` [Compound 24], for which the solubility at 2 h in data set [2] (setting [3]) and in data set [2] (setting [4]) was no less than 1 µM each time. For the same compound, the IC50 at AHR is less than 100 nM.
Take `Cc1ccc(-c2cc3c(=O)n([C@H](CO)C(C)C)cnc3c(-c3cc(F)cc(F)c3)n2)cc1` [Compound 37]: the solubility at 2 h is no less than 1 µM in data set [2] (setting [3]) and less than 0.1 µM in data set [2] (setting [4]). Further, on AHR, the IC50 was less than 100 nM.
The corresponding values for `CC(C)(O)Cn1cnc2c(-c3cccc(F)c3)nc(-c3ccc(Cl)cc3)cc2c1=O` [Compound 38] are less than 0.1 µM, less than 0.1 µM and less than 100 nM.
Regarding `O=c1c2cc(-c3ccc(OC(F)(F)F)cc3)nc(-c3cccnc3)c2ncn1C[C@@H](O)C(F)(F)F` [Compound 123, (R)-8-(pyridin-3-yl)-3-(3,3,3-trifluoro-2-hydroxypropyl)-6-(4-(trifluoromethoxy)phenyl)pyrido[3,4-d]pyrimidin-4(3H)-one], the CLint scaled at 1 μM in data set [1] is less than 20 mL/min/kg. Besides, the solubility at 2 h is no less than 1 µM in data set [2] (setting [3]) and less than 0.1 µM in data set [2] (setting [4]).
For `O=c1c2cc(-c3ccc(C(F)(F)F)nc3)nc(-c3cccnc3)c2ncn1[C@@H]1COC[C@@H]1O` [Compound 129, 3-((3R,4R)-4-hydroxytetrahydrofuran-3-yl)-8-(pyridin-3-yl)-6-(6-(trifluoromethyl)pyridin-3-yl)pyrido[3,4-d]pyrimidin-4(3H)-one], the solubility at 2 h in data set [2] (setting [3]) and in data set [2] (setting [4]) was no less than 1 µM throughout. The IC50 at AHR is less than 100 nM.
For `O=c1c2cc(-c3ccc(Cl)cc3)nc(-c3cccnc3)c2ncn1[C@@H]1CNC[C@H]1O` [Compound 134, 6-(4-chlorophenyl)-3-((3R,4R)-4-hydroxypyrrolidin-3-yl)-8-(pyridin-3-yl)pyrido[3,4-d]pyrimidin-4(3H)-one], the CLint scaled at 1 μM in data set [1] is less than 20 mL/min/kg. Moreover, at AHR, the IC50 was less than 100 nM.
Take `O=c1c2cc(-c3ccc(C(F)(F)F)cn3)nc(-c3cccnc3)c2ncn1[C@@H]1COC[C@@H]1O` [Compound 148, 3-((3R,4R)-4-hydroxytetrahydrofuran-3-yl)-8-(pyridin-3-yl)-6-(5-(trifluoromethyl)pyridin-2-yl)pyrido[3,4-d]pyrimidin-4(3H)-one]: the solubility at 2 h in data set [2] (setting [3]) and in data set [2] (setting [4]) was no less than 1 µM each time. Further, the IC50 at AHR is less than 100 nM.
Take `C[C@@H](CO)n1cnc2c(-c3cnn(C)c3)nc(-c3ccc(C(F)(F)F)cn3)cc2c1=O` [Compound 150, (S)-3-(1-hydroxypropan-2-yl)-8-(1-methyl-1H-pyrazol-4-yl)-6-(5-(trifluoromethyl)pyridin-2-yl)pyrido[3,4-d]pyrimidin-4(3H)-one]: the CLint scaled at 1 μM in data set [1] was less than 20 mL/min/kg. Also, at AHR, the IC50 is less than 100 nM.
As for `C[C@@H](CO)n1cnc2c(-c3cccnc3)nc(C(=O)N(C)C)cc2c1=O` [Compound 190, (S)-3-(1-hydroxypropan-2-yl)-N,N-dimethyl-4-oxo-8-(pyridin-3-yl)-3,4-dihydropyrido[3,4-d]pyrimidine-6-carboxamide], the IC50 at AHR was greater than 500 nM.
On the same count and under the same terms, the same measure for `C[C@@H](CO)n1cnc2c(-c3cn[nH]c3)nc(-c3ccc(C(F)(F)F)cn3)cc2c1=O` [Compound 191, (S)-3-(1-hydroxypropan-2-yl)-8-(1H-pyrazol-4-yl)-6-(5-(trifluoromethyl)pyridin-2-yl)pyrido[3,4-d]pyrimidin-4(3H)-one]: less than 100 nM.
On the same count and under the same terms, the same measure for `COCCc1cc2c(=O)n([C@@H](C)CO)cnc2c(-c2cccnc2)n1` [Compound 192, (S)-3-(1-hydroxypropan-2-yl)-6-(2-methoxyethyl)-8-(pyridin-3-yl)pyrido[3,4-d]pyrimidin-4(3H)-one]: greater than 500 nM.
